From ChEMBL document CHEMBL1201862, “PubChem BioAssay data set” (2004)
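48-hour exposure; five concentrations; linearly interpolated endpoints. GI50 is the concentration that inhibits growth by half.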 Calls of active or inactive are those of the source. Rule as the data show it: active = GI50 up to about 1.1 µM and inactive = higher.

What was measured:
Assay in all cases: growth of human tumour cells (NCI), 48 h
[1] = system: 786-0
[2] = system: A549
[3] = system: CAKI-1
[4] = system: DU-145
[5] = system: HL-60
[6] = system: HT-29
[7] = system: M14
[8] = system: MDA-MB-231
[9] = system: MDA-N
[10] = system: SF-268
[11] = system: SF-295
[12] = system: SF-539
[13] = system: SK-MEL-2
[14] = system: SK-MEL-5
[15] = system: SNB-19
[16] = system: SNB-75
[17] = system: T47D
[18] = system: TK-10
[19] = system: UACC-257

Which results are given for `N#Cc1nc(-c2cccs2)oc1N`?
GI50 [1]: > 100 µM (inactive); GI50 [2]: > 100 µM (inactive); GI50 [3]: 3.09 µM (inactive); GI50 [4]: > 100 µM (inactive); GI50 [5]: 56.8 µM (inactive); GI50 [6]: > 100 µM (inactive); GI50 [7]: > 100 µM (inactive); GI50 [8]: 51.3 µM (inactive); GI50 [9]: > 100 µM (inactive); GI50 [10]: > 100 µM (inactive); GI50 [11]: > 100 µM (inactive); GI50 [12]: > 100 µM (inactive); GI50 [13]: > 100 µM (inactive); GI50 [14]: > 100 µM (inactive); GI50 [15]: > 100 µM (inactive); GI50 [16]: 92.3 µM (inactive); GI50 [17]: > 100 µM (inactive); GI50 [18]: > 100 µM (inactive); GI50 [19]: > 100 µM (inactive)

Which GI50 [1] does the source give for `COc1cccc(C(C#N)NC23CC4CC(CC(C4)C2)C3)c1` (stereo not given) here?
Its GI50 is > 100 µM (inactive).

What about the GI50 [2] of the same compound?
The GI50 was > 100 µM (inactive).

What about the GI50 [3] of the same compound?
Its GI50 is > 100 µM (inactive).

And the GI50 [4]?
Its GI50 is > 100 µM (inactive).

And the GI50 [5]?
Its GI50 is > 100 µM (inactive).

What about the GI50 [6] of the same compound?
The GI50 was > 100 µM (inactive).

What about the GI50 [7] of the same compound?
Its GI50 is > 100 µM (inactive).

And the GI50 [8]?
Its GI50 is > 100 µM (inactive).

And the GI50 [9]?
Its GI50 is > 100 µM (inactive).

And the GI50 [10]?
Its GI50 is > 100 µM (inactive).

What about the GI50 [11] of the same compound?
The GI50 was > 100 µM (inactive).

And the GI50 [12]?
Its GI50 is > 100 µM (inactive).

What about the GI50 [13] of the same compound?
Its GI50 is > 100 µM (inactive).

What about the GI50 [14] of the same compound?
The GI50 was > 100 µM (inactive).

What about the GI50 [15] of the same compound?
Its GI50 is > 100 µM (inactive).

What about the GI50 [16] of the same compound?
The GI50 was > 100 µM (inactive).

What about the GI50 [17] of the same compound?
The GI50 was > 100 µM (inactive).

What about the GI50 [18] of the same compound?
Its GI50 is > 100 µM (inactive).

What about the GI50 [19] of the same compound?
The GI50 was > 100 µM (inactive).

Which GI50 [1] does the source give for `CC(C)[C@H]1NC(=O)[C@H]2N=C(O[C@@H]2C)[C@@H]2CCCN2C(=O)[C@H](Cc2ccccc2)NC(=O)[C@@H]2COC(=N2)[C@@H](Cc2ccccc2)NC(=O)[C@@H]2COC1=N2` here?
The GI50 was > 100 µM (inactive).

What about the GI50 [2] of the same compound?
The GI50 was > 100 µM (inactive).

What about the GI50 [3] of the same compound?
The GI50 was > 100 µM (inactive).

And the GI50 [4]?
The GI50 was > 100 µM (inactive).

And the GI50 [5]?
Its GI50 is > 100 µM (inactive).

What about the GI50 [6] of the same compound?
The GI50 was > 100 µM (inactive).

And the GI50 [7]?
Its GI50 is > 100 µM (inactive).

And the GI50 [8]?
The GI50 was > 100 µM (inactive).

What about the GI50 [9] of the same compound?
Its GI50 is > 100 µM (inactive).

And the GI50 [10]?
The GI50 was > 100 µM (inactive).

What about the GI50 [11] of the same compound?
Its GI50 is > 100 µM (inactive).

What about the GI50 [12] of the same compound?
The GI50 was > 100 µM (inactive).

And the GI50 [13]?
The GI50 was > 100 µM (inactive).

What about the GI50 [14] of the same compound?
The GI50 was > 100 µM (inactive).

What about the GI50 [15] of the same compound?
Its GI50 is > 100 µM (inactive).

And the GI50 [16]?
Its GI50 is 0.428 µM (active).

What about the GI50 [17] of the same compound?
Its GI50 is > 100 µM (inactive).

And the GI50 [18]?
The GI50 was > 100 µM (inactive).

What about the GI50 [19] of the same compound?
The GI50 was > 100 µM (inactive).

`O=C(O)CCCCn1ccc(=O)[nH]c1=O` was tested. Which GI50 [1] did it give?
The GI50 was > 100 µM (inactive).

And the GI50 [2]?
The GI50 was > 100 µM (inactive).

And the GI50 [3]?
The GI50 was > 100 µM (inactive).

And the GI50 [4]?
Its GI50 is > 100 µM (inactive).

And the GI50 [5]?
Its GI50 is > 100 µM (inactive).

What about the GI50 [6] of the same compound?
Its GI50 is > 100 µM (inactive).

What about the GI50 [7] of the same compound?
The GI50 was > 100 µM (inactive).

What about the GI50 [8] of the same compound?
Its GI50 is > 100 µM (inactive).

And the GI50 [9]?
The GI50 was > 100 µM (inactive).

And the GI50 [10]?
Its GI50 is > 100 µM (inactive).

And the GI50 [11]?
The GI50 was > 100 µM (inactive).

What about the GI50 [12] of the same compound?
Its GI50 is > 100 µM (inactive).

And the GI50 [13]?
Its GI50 is > 100 µM (inactive).

And the GI50 [14]?
Its GI50 is > 100 µM (inactive).

And the GI50 [15]?
Its GI50 is > 100 µM (inactive).

What about the GI50 [16] of the same compound?
Its GI50 is > 100 µM (inactive).

What about the GI50 [17] of the same compound?
The GI50 was > 100 µM (inactive).

And the GI50 [18]?
Its GI50 is > 100 µM (inactive).

And the GI50 [19]?
The GI50 was > 100 µM (inactive).

How did the GI50 [1] turn out when `C[C@]12CC[C@H]3[C@@H](CC[C@]4(O)C[C@@H](O)CC[C@]34CO)[C@@]1(O)CC[C@@H]2C1=CC(=O)OC1` [STROPHANTHIDOL] was run?
Its GI50 is 1.42 µM (inactive).

And the GI50 [2]?
The GI50 was 0.453 µM (active).

What about the GI50 [3] of the same compound?
The GI50 was 0.494 µM (active).

What about the GI50 [4] of the same compound?
Its GI50 is 1.36 µM (inactive).

And the GI50 [5]?
Its GI50 is 1.64 µM (inactive).

What about the GI50 [6] of the same compound?
The GI50 was 1.94 µM (inactive).

And the GI50 [7]?
Its GI50 is 3.01 µM (inactive).

What about the GI50 [8] of the same compound?
The GI50 was 8.45 µM (inactive).

What about the GI50 [9] of the same compound?
Its GI50 is 2.99 µM (inactive).

And the GI50 [10]?
The GI50 was 0.982 µM (active).

What about the GI50 [11] of the same compound?
The GI50 was 1.21 µM (inactive).

And the GI50 [12]?
Its GI50 is 1.15 µM (inactive).

What about the GI50 [13] of the same compound?
Its GI50 is 2.5 µM (inactive).

What about the GI50 [14] of the same compound?
The GI50 was 0.979 µM (active).

What about the GI50 [15] of the same compound?
The GI50 was 5.94 µM (inactive).

And the GI50 [16]?
The GI50 was 4.02 µM (inactive).

What about the GI50 [17] of the same compound?
Its GI50 is 3.3 µM (inactive).

And the GI50 [18]?
The GI50 was 1.52 µM (inactive).

And the GI50 [19]?
Its GI50 is 2.99 µM (inactive).
